Experiments:
[1] = tested on: C. tropicalis MY 1012; assay: Minimum fungicidal concentration (MFC), microbroth dilution assay in YNBD; assay type: cell-based, Candida tropicalis; settings: 35° C. 24 hours, then SDA 24 hours at 28° C.
Protocol: (§1) The compounds of the present invention are active against many fungi and particularly against Candida species. The antifungal properties may be illustrated with the minimum fungicidal concentration (MFC) determination against certain Candida organisms in a microbroth dilution assay carried out in a Yeast Nitrogen Base (Difco) medium with 1% dextrose (YNBD).
(§2) In carrying out the assay, Compound A-Ia was solubilized in 10 percent dimethyl sulfoxide (DMSO) and diluted to 2560 μg/ml. The compound was then diluted to 256 μg/ml in YNBD.
(§3) The yeast cultures, maintained on Sabouraud dextrose agar were transferred to YN broth (Difco) and incubated overnight at 35° C. with shaking (250 rpm). After incubation, each culture was diluted in sterile water to yield a final concentration of 1-5×10^6 colony forming units (CFU)/ml.
(§4) 96-well microplates were inoculated using a MIC-2000 (Dynatech) which delivers […] per well yielding a final inoculum per well of 1.5-7.5×10^3 cells. The microplates were incubated at 35° C. for 24 hours. The minimum inhibitory concentrations (MICs) were recorded as the lowest concentrations of drug showing no visible growth.
(§5) After recording the MIC, the plates were shaken to resuspend the cells. […] The inoculated trays were incubated 24 hours at 28° C. and then read for minimum fungicidal concentration (MFC). […]

[2] = tested on: C. pseudotropicalis MY 1100; assay: as above; assay type: cell-based, Candida pseudotropicalis; settings: 35° C. 24 hours, then SDA 24 hours at 28° C.
Protocol: as §1, §2, §3, §4, §5

[3] = tested on: C. parapsilosis MY 1010; assay: as above; assay type: cell-based, Candida parapsilosis; settings: 35° C. 24 hours, then SDA 24 hours at 28° C.
Protocol: as §1, §2, §3, §4, §5

[4] = tested on: Candida albicans MY 1055; assay: In vivo effectiveness in mice infected I.V. with Candida albicans, kidney CFU; parameters: species or system female DBA/2 mice; settings: 0.4 mg/kg I.P. twice daily for four consecutive days; kidneys of DBA/2 mice after seven days
Protocol: Growth from an overnight SDA culture of Candida albicans MY 1055 was suspended in sterile saline and the cell concentration determined by hemacytometer count and the cell suspension adjusted to 3.75 x 10^5 cells/mi. Then 0.2 milliliter of this suspension was administered I.V. in the tail vein of mice so that the final inoculum was 7.5×10^4 cells/mouse.
The assay then was carried out by administering aqueous solutions of Compound A-Ia at various concentrations intraperitoneally (I.P.), twice daily (b.i.d.) for four consecutive days to 18 to 20 gram female DBA/2 mice, which previously had been infected with Candida albicans in the manner described above. Distilled water was administered I.P. to C. albicans challenged mice as controls. After seven days, the mice were sacrificed by carbon dioxide gas, paired kidneys were removed aseptically and placed in sterile polyethylene bags containing 5 milliters of sterile saline. The kidneys were homogenized in the bags, serially diluted in sterile saline and aliquots spread on the surface of SDA plates. The plates were incubated at 35° C. for 48 hours and yeast colonies were enumerated for determination of colony forming units (CFU) per gram of kidneys. Compound A-Ia gave 99 percent reduction of recoverable Candida CFUs at 0.4 mg/kg I.P. twice daily for four consecutive days.

[5] = tested on: Pneumocystis carinii; assay: Pneumocystis carinii pneumonia in immunosuppressed rats, lung cysts; assay type: in vivo, Sprague-Dawley rats; settings: sc twice daily for four days, compared with untreated or solvent controls
Protocol: The compounds of the present invention may also be useful for inhibiting or alleviating Pneumocystis carinii infections in immune compromised patients. […] Before drug treatment, two rats are sacrificed to confirm the presence of Pneumocystis carinii pneumonia (PCP). Five rats (weighing approximately 150 grams) are injected twice daily for four days subcutaneously (sc) with Compound A-Ia in 0.25 ml of vehicle (distilled water). A vehicle control is also carried out. All animals continue to receive dexasone in the drinking water and low protein diet during the treatment period. At the completion of the treatment, all animals are sacrificed, the lungs are removed and processed, and the extent of disease determined by microscopic examination of stained slides for the presence of cysts.

[6] = tested on: C. Albicans MY 1055; assay: Minimum fungicidal concentration (MFC), microbroth dilution assay in YNBD; assay type: cell-based, Candida albicans; settings: 35° C. 24 hours, then SDA 24 hours at 28° C.
Protocol: as §1, §2, §3, §4
(§6) After recording the MIC, the plates were shaken to resuspend the cells. Thereafter, 1.5 μl samples from the wells in the 96-well microplate were transferred to a single well tray containing Sabouraud dextrose agar. The inoculated trays were incubated 24 hours at 28° C. and then read for minimum fungicidal concentration (MFC). MFC is defined as the lowest concentration of drug showing no growth or less than 4 colonies per spot.

[7] = tested on: C. Albicans MY 1730; assay: as above; assay type: cell-based, Candida albicans; settings: 35° C. 24 hours, then SDA 24 hours at 28° C.
Protocol: as §1, §2, §3, §4, §6

[8] = tested on: C. Albicans MY 1028; assay: as above; assay type: cell-based, Candida albicans; settings: 35° C. 24 hours, then SDA 24 hours at 28° C.
Protocol: as §1, §2, §3, §4, §6

## 1-[4-hydroxy-5-aminoethylthio-N^2 -(10,12-dimethyl-1-oxotetradecyl)ornithine]-5-(3-hydroxyglutamine)-6-(3-hydroxyproline)echinocandin B trifluoroacetate [Compound A-Ia]
[1]
  MFC: 0.125 µg/mL
[2]
  MFC: 0.25 µg/mL
[3]
  MFC: 0.25 µg/mL
[4]
  reduction of recoverable Candida CFUs: 99%
[5]
  extent of disease: cysts in stained slides from the lungs: prevention of or reduction of cysts
[6]
  MFC: 0.5 µg/mL
[7]
  MFC: 0.125 µg/mL
[8]
  MFC: 0.5 µg/mL

— patent publication US5399552A, “Antibiotic peptides bearing aminoalkylthioether moieties” (Merck & Co, Inc, priority 1991, dated 1995)
